Measurements taken from US20240158418A1 (C4 Therapeutics, Inc., priority 2021, published 2024).
Like-named read-outs stand apart in the source and are kept apart here.

Assays:
Assay type in all cases: cell-based
EGFR L858R-T790M = biological target: T1, EGFR L858R-T790M (Homo sapiens, UniProt P00533, L858R/T790M); test: EGFR degradation, Total EGFR (L858R-specific) HTRF, NCI-H1975; conditions: NCI-H1975 cells, 6 hours, Total EGFR HTRF, read-out: H1975 EGFR DC50
T1 construct: NCI-H1975 (harboring EGFR heterozygous L858R-T790M mutations); host or cells: NCI-H1975
In short: (§1)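 HTRF read-outs: pY1068 phospho-EGFR for IC50; total EGFR (pan-EGFR in A431, L858R-specific in mutant lines) for DC50. Compounds were titrated 11 points, half-log, from 10 μM in duplicate onto cells in 10% FBS RPMI, incubated 6 h at 37°C.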

EGFR L858R-T790M-C797S = biological target: T2, EGFR L858R-T790M-C797S (Homo sapiens, UniProt P00533, C797S/L858R/T790M); test: EGFR degradation, Total EGFR (L858R-specific) HTRF, NCI-H1975+CS; conditions: 6 hours, Total EGFR HTRF
T2 construct: generated using CRISPR technology to introduce the additional C797S mutation by Horizon Discovery; host or cells: NCI-H1975+CS (CRISPR knock-in of C797S)
Source text: NCI-H1975 (harboring EGFR heterozygous L858R-T790M mutations) and NCI-H3255 (harboring EGFR heterozygous L858R mutation) were purchased from ATCC and NCI, respectively. NCI-H1975+CS (harboring EGFR heterozygous L858R-T790M-C797S mutations) was generated using CRISPR technology to introduce the additional C797S mutation by Horizon Discovery. A431 (harboring EGFR wildtype) was purchased from ATCC. RPMI 1640 no-phenol red medium and fetal bovine serum (FBS) were purchased from Gibco (Grand Island, NY, USA). Cell culture flasks and 384-well microplates were acquired from VWR (Radnor, PA, USA). Phosphorylated (pY1068) EGFR and Total EGFR (using L858R-specific detection antibody and pan-EGFR antibody for EGFR mutant cell lines and EGFR wild-type cell lines, respectively) HTRF assay kits were purchased from Cisbio (Bedford, MA, USA).
Degradation of EGFR protein containing L858R mutation or wild-type was determined based on quantification of FRET signal using a Total EGFR (L858R-specific or pan-EGFR detecting) HTRF assay kit. Phospho-EGFR (pEGFR) inhibition was determined based on quantification of FRET signal using a pY1068 EGFR HTRF assay kit. In separate assay plates, test compounds were added to the 384-well plate from a top concentration of 10 μM with 11 points, half log titration in duplicates. For each assay, 12.5 uL of cells suspended in assay media (RPMI 1640 no-phenol red medium+10% FBS) at cell densities indicated for each cell line in Table 8 below were dispensed using a multi-channel pipette to 384-well low volume white HTRF microplates containing a duplicate concentration range of test compounds and DMSO controls. The plates were kept at 37° C. with 5% CO2 for 6 hours and then incubated with either phospho EGFR or Total EGFR HTRF detection antibodies according to the cell line and EGFR mutant being assayed. Cells treated in the absence of the test compound were the negative control. Positive control was set by wells containing all reagents but no cells. FRET signal was acquired on EnVision™ Multilabel Reader (PerkinElmer, Santa Clara, CA, USA). Compound concentration that achieves 50% degradation and inhibition was reported as DC50 and IC50, respectively.

EGFR L858R = EGFR L858R (Homo sapiens, UniProt P00533, L858R); test: EGFR degradation, Total EGFR (L858R-specific) HTRF, NCI-H3255; design: NCI-H3255 (harboring EGFR heterozygous L858R mutation); host or cells: NCI-H3255; conditions: Table 9A; NCI-H3255 cells, 6 hours, Total EGFR HTRF; read-out: H3255 EGFR DC50
In short: as §1

[1] = Table 9A, NCI-H1975+CS cells, read-out: H1975+ CS EGFR DC50
[2] = Table 9B, NCI-H1975 C797S clone, read-out: H1975 C797S clone EGFR DC50

Chain of EGFR L858R (P00533 25-1210 L858R): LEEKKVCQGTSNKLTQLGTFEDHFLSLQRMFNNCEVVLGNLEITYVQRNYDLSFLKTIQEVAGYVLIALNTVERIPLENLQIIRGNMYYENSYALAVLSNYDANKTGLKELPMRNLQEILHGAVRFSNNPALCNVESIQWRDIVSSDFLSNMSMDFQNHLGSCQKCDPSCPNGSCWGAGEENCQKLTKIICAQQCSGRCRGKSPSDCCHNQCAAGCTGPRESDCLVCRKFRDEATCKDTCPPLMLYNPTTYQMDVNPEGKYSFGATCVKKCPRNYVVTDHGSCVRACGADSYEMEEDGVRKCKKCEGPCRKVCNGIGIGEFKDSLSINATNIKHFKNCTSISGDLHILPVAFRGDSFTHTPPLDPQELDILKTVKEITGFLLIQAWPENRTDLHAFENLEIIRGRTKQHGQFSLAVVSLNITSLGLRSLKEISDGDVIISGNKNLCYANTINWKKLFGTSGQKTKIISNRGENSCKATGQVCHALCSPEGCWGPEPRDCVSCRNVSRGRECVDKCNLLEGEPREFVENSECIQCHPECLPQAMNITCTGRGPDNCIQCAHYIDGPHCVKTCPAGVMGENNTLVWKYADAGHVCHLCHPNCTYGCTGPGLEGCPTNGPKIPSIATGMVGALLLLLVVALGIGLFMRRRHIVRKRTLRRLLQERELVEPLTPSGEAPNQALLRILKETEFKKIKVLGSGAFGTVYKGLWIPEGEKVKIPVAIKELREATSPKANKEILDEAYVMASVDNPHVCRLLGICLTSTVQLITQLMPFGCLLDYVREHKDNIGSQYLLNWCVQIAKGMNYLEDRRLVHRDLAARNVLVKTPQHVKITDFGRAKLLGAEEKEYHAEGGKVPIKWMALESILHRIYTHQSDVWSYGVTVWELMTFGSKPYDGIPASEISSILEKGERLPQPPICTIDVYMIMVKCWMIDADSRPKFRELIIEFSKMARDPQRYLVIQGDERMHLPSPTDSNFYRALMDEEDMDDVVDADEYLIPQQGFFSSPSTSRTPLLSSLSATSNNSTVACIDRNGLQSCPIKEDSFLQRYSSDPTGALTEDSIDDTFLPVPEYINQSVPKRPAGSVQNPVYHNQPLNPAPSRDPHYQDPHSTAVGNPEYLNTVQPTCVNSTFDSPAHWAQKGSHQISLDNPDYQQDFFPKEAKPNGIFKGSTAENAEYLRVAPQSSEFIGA
T1 sequence (P00533 25-1210 T790M/L858R): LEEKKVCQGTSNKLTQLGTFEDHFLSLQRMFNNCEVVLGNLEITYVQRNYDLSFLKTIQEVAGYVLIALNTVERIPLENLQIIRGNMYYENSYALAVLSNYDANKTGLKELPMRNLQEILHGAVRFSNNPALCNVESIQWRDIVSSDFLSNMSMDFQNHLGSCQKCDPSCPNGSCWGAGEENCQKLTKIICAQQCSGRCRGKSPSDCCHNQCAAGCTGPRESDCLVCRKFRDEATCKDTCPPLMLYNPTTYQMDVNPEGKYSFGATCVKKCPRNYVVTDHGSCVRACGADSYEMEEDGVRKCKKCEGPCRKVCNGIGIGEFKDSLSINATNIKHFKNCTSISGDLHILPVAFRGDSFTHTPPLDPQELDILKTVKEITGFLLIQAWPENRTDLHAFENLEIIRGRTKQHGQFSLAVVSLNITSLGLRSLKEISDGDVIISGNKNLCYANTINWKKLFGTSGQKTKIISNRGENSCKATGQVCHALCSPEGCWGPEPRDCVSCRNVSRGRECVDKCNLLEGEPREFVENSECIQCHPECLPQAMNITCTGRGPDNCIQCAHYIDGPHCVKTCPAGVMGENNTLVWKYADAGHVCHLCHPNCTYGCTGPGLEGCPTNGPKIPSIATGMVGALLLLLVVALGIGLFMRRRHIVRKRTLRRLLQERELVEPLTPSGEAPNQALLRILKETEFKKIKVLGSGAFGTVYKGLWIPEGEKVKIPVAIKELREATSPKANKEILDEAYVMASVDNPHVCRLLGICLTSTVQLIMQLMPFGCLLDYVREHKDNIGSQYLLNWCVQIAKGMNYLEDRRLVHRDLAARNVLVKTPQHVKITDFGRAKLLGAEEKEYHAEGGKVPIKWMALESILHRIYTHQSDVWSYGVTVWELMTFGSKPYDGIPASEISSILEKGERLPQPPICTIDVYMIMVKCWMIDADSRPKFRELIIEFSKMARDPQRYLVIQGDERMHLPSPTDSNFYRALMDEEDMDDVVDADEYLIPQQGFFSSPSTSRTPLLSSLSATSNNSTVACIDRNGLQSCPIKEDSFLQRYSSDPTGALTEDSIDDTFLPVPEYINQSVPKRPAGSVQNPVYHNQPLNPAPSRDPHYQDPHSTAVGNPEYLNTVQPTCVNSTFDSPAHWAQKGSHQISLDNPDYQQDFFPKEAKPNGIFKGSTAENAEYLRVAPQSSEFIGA
T2 sequence (P00533 25-1210 T790M/C797S/L858R): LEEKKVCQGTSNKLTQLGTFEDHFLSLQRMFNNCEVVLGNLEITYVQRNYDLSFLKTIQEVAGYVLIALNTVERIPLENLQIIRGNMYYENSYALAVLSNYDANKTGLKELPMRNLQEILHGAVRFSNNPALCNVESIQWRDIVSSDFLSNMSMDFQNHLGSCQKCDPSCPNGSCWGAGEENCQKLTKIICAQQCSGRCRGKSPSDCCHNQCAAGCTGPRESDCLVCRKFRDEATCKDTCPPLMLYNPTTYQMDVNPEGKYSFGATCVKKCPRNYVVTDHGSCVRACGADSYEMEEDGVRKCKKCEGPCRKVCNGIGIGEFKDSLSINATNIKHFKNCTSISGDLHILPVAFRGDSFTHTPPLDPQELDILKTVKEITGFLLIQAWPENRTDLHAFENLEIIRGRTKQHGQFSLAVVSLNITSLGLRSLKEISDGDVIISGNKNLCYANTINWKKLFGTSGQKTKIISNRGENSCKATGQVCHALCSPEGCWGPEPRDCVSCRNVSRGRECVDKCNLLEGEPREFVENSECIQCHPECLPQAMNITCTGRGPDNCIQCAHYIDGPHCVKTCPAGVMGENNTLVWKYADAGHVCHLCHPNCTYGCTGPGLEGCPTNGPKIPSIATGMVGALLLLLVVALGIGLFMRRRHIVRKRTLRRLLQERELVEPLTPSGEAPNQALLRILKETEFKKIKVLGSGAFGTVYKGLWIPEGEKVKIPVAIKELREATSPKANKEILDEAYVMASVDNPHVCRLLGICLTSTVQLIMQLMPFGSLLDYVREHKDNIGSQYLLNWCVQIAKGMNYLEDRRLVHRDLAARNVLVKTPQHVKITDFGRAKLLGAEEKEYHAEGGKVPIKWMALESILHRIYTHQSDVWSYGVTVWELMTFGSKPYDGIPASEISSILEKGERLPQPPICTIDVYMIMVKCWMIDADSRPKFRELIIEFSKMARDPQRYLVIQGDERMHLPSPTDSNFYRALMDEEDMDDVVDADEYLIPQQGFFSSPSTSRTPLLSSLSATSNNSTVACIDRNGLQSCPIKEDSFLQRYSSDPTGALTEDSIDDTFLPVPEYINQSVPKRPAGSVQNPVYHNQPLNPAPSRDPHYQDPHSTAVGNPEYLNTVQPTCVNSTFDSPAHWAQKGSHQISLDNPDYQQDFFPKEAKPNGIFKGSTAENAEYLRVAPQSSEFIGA

Compound	DC50 (EGFR L858R-T790M; Table 9A) [nM]	DC50 (EGFR L858R-T790M-C797S; [1]) [nM]	DC50 (EGFR L858R) [nM]	DC50 (EGFR L858R-T790M; Table 9B) [nM]	DC50 (EGFR L858R-T790M-C797S; [2]) [nM]
O=C1CCC(Nc2ccc(C3CCN(CC(=O)N4CCN(c5ccc(-c6cc(F)c7c(c6)C(=O)N(C(C(=O)Nc6nccs6)c6ncn8c6C[C@@H](F)C8)C7)cc5)CC4)CC3)cc2)C(=O)N1 (mixture of isomers) [Compound 43, (2RS)-2-[6-[4-[4-[2-[4-[4-[[(3RS)-2,6-Dioxo-3-piperidyl]amino]phenyl]-1-piperidyl]acetyl]piperazin-1-yl]phenyl]-4-fluoro-1-oxo-isoindolin-2-yl]-2-[(6R)-6-fluoro-6,7-dihydro-5H-pyrrolo[1,2-c]imidazol-1-yl]-N-thiazol-2-yl-acetamide]	< 50	< 50	< 50	–	–
N#Cc1cc(NC2CCC(=O)NC2=O)ccc1C1CCN(CC(=O)N2CCN(c3ccc(-c4cc(F)c5c(c4)C(=O)N(C(C(=O)Nc4nccs4)c4ncn6c4CCC6)C5)cc3)CC2)CC1 (stereo not drawn) [Compound 14, 2-[6-[4-[4-[2-[4-[2-cyano-4-[(2,6-dioxo-3-piperidyl)amino]phenyl]-1-piperidyl]acetyl]piperazin-1-yl]phenyl]-4-fluoro-1-oxo-isoindolin-2-yl]-2-(6,7-dihydro-5H-pyrrolo[1,2-c]imidazol-1-yl)-N-thiazol-2-yl-acetamide]	< 50	< 50	< 50	–	–
O=C1CCC(Nc2ccc(C3CCN(CC(=O)N4CCN(c5ccc(-c6cc(F)c7c(c6)C(=O)N(C(C(=O)Nc6nccs6)c6ncn8c6CCC8)C7)cc5)CC4)CC3)c(C(F)F)c2)C(=O)N1 (stereo not drawn) [Compound 15, 2-[6-[4-[4-[2-[4-[2-(difluoromethyl)-4-[(2,6-dioxo-3-piperidyl)amino]phenyl]-1-piperidyl]acetyl]piperazin-1-yl]phenyl]-4-fluoro-1-oxo-isoindolin-2-yl]-2-(6,7-dihydro-5H-pyrrolo[1,2-c]imidazol-1-yl)-N-thiazol-2-yl-acetamide]	< 50	< 50	< 50	–	–
Cn1nc(N2CCC(=O)NC2=O)c2ccc(C3CCN(CC(=O)N4CCN(c5ccc(-c6cc(F)c7c(c6)C(=O)N(C(C(=O)Nc6nccs6)c6ncn8c6CCC8)C7)cc5)CC4)CC3)cc21 (stereo not drawn) [Compound 17, 2-(6,7-dihydro-5H-pyrrolo[1,2-c]imidazol-1-yl)-2-(6-(4-(4-(2-(4-(3-(2,4-dioxotetrahydropyrimidin-1(2H)-yl)-1-methyl-1H-indazol-6-yl)piperidin-1-yl)acetyl)piperazin-1-yl)phenyl)-4-fluoro-1-oxoisoindolin-2-yl)-N-(thiazol-2-yl)acetamide]	< 50	< 50	< 50	–	–
O=C1CCC(Nc2ccc(C3CCN(CC(=O)N4CCN(c5ccc(-c6cc(F)c7c(c6)C(=O)N(C(C(=O)Nc6ccccn6)c6ncn8c6CCC8)C7)cc5)CC4)CC3)cc2)C(=O)N1 (stereo not drawn) [Compound 19, 2-(6,7-dihydro-5H-pyrrolo[1,2-c]imidazol-1-yl)-2-(6-(4-(4-(2-(4-(4-((2,6-dioxopiperidin-3-yl)amino)phenyl)piperidin-1-yl)acetyl)piperazin-1-yl)phenyl)-4-fluoro-1-oxoisoindolin-2-yl)-N-(pyridin-2-yl)acetamide]	50 to 150	< 50	< 50	–	–
O=C1CCC(Nc2ccc(C3CCN(CC(=O)N4CCN(c5ccc(-c6cc(F)c7c(c6)C(=O)N(C(C(=O)Nc6ccccn6)c6ncn8c6CCC8)C7)cc5)CC4)CC3)c(F)c2)C(=O)N1 (stereo not drawn) [Compound 20, 2-(6,7-dihydro-5H-pyrrolo[1,2-c]imidazol-1-yl)-2-[6-[4-[4-[2-[4-[4-[(2,6-dioxo-3-piperidyl)amino]-2-fluoro-phenyl]-1-piperidyl]acetyl]piperazin-1-yl]phenyl]-4-fluoro-1-oxo-isoindolin-2-yl]-N-(2-pyridyl)acetamide]	50 to 150	< 50	< 50	–	–
O=C1CCC(Nc2ccc(C3CCN(CC(=O)N4CCC(c5ccc(-c6cc(F)c7c(c6)C(=O)N(C(C(=O)Nc6nccs6)c6ncn8c6CCC8)C7)cc5)CC4)CC3)cc2)C(=O)N1 (stereo not drawn) [Compound 21, 2-(6,7-dihydro-5H-pyrrolo[1,2-c]imidazol-1-yl)-2-(6-(4-(1-(2-(4-(4-((2,6-dioxopiperidin-3-yl)amino)phenyl)piperidin-1-yl)acetyl)piperidin-4-yl)phenyl)-4-fluoro-1-oxoisoindolin-2-yl)-N-(thiazol-2-yl)acetamide]	< 50	< 50	< 50	–	–
O=C1CC[C@H](Nc2ccc(C3CCN(CC(=O)N4CCC(c5ccc(-c6cc(F)c7c(c6)C(=O)N(C(C(=O)Nc6nccs6)c6ncn8c6CCC8)C7)cc5)CC4)CC3)c(F)c2)C(=O)N1 (stereo partly drawn) [Compound 24, 2-(6,7-dihydro-5H-pyrrolo[1,2-c]imidazol-1-yl)-2-(6-(4-(1-(2-(4-(4-(((S)-2,6-dioxopiperidin-3-yl)amino)-2-fluorophenyl)piperidin-1-yl)acetyl)piperidin-4-yl)phenyl)-4-fluoro-1-oxoisoindolin-2-yl)-N-(thiazol-2-yl)acetamide]	50 to 150	< 50	< 50	–	–
N#Cc1cc(NC2CCC(=O)NC2=O)ccc1C1CCN(CC(=O)N2CCC(c3ccc(-c4cc(F)c5c(c4)C(=O)N(C(C(=O)Nc4nccs4)c4ncn6c4CCC6)C5)cc3)CC2)CC1 (stereo not drawn) [Compound 25, 2-(6-(4-(1-(2-(4-(2-cyano-4-((2,6-dioxopiperidin-3-yl)amino)phenyl)piperidin-1-yl)acetyl)piperidin-4-yl)phenyl)-4-fluoro-1-oxoisoindolin-2-yl)-2-(6,7-dihydro-5H-pyrrolo[1,2-c]imidazol-1-yl)-N-(thiazol-2-yl)acetamide]	< 50	< 50	< 50	–	–
O=C1CCC(Nc2ccc(N3CCC(O)(CC(=O)N4CCC(NC(=O)c5ccc(C#Cc6cc(F)c7c(c6)C(=O)N(C(C(=O)Nc6nccs6)c6ncn8c6CCC8)C7)cn5)CC4)CC3)c(F)c2)C(=O)N1 (stereo not drawn) [Compound 96, 5-((2-(1-(6,7-dihydro-5H-pyrrolo[1,2-c]imidazol-1-yl)-2-oxo-2-(thiazol-2-ylamino)ethyl)-7-fluoro-3-oxoisoindolin-5-yl)ethynyl)-N-(1-(2-(1-(4-((2,6-dioxopiperidin-3-yl)amino)-2-fluorophenyl)-4-hydroxypiperidin-4-yl)acetyl)piperidin-4-yl)picolinamide]	–	–	–	< 50	< 50
O=C1CCC(Nc2ccc(N3CCC(O)(CC(=O)N4CC5(C4)CN(c4ccc(-c6cc(F)c7c(c6)C(=O)N(C(C(=O)Nc6ccccn6)c6ncn8c6CCC8)C7)cc4)C5)CC3)c(F)c2)C(=O)N1 (stereo not drawn) [Compound 99, 2-(6,7-dihydro-5H-pyrrolo[1,2-c]imidazol-1-yl)-2-[6-[4-[2-[2-[1-[4-[(2,6-dioxo-3-piperidyl)amino]-2-fluoro-phenyl]-4-hydroxy-4-piperidyl]acetyl]-2,6-diazaspiro[3.3]heptan-6-yl]phenyl]-4-fluoro-1-oxo-isoindolin-2-yl]-N-(2-pyridyl)acetamide]	–	–	–	< 50	< 50
Cn1nc(N2CCC(=O)NC2=O)c2ccc(C3CCN(CC(=O)N4CC5(C4)CN(c4ccc(-c6cc(F)c7c(c6)C(=O)N(C(C(=O)Nc6nccs6)c6ncn8c6CCC8)C7)cc4)C5)C4(CC4)C3)cc21 (stereo not drawn) [Compound 154, 2-(6,7-dihydro-5H-pyrrolo[1,2-c]imidazol-1-yl)-2-[6-[4-[2-[2-[7-[3-(2,4-dioxohexahydropyrimidin-1-yl)-1-methyl-indazol-6-yl]-4-azaspiro[2.5]octan-4-yl]acetyl]-2,6-diazaspiro[3.3]heptan-6-yl]phenyl]-4-fluoro-1-oxo-isoindolin-2-yl]-N-thiazol-2-yl-acetamide]	–	–	–	< 50	< 50
